What is called pIC50 is the IC50 on a negative log10 scale, so that one unit is a factor of ten.

Our source for the IC50 values is patent US6541471B1, “Benzenesulphonamide compounds” (Les Laboratoires Servier, priority 2001, dated 2003).

pIC50: −log10 of the molar value.

In experiment [1] the test system is platelet aggregation induced by the TXA2 agonist U46619 in human platelet-rich plasma (PRP). The experiment is described as follows: Platelet aggregation in man induced by the TXA2 agonist U46619. The format is cell-based. To be noted: U46619 1 μM, read-out: IC50, inhibition of platelet aggregation induced by the TXA2 agonist. The method, then: (§1) Venous blood is obtained from human volunteers who have not taken aspirin for at least 14 days prior to the experiment. The blood is removed over sodium citrate (0.109 M) (1 vol. of citrate over 9 vol. of blood). Platelet-rich plasma (PRP) is obtained by centrifugation (20° C.) at 200 g for 10 minutes. The number of platelets is on average 250000 PL/mm^3. The PRP is stored at room temperature until the test and is used within 2 hours of having been taken. The TXA2 agonist U46619 is used at a concentration of 1 μM and 5-hydroxytryptamine is used at a concentration of 10 μM, the latter in the presence of 0.3 μM adenosine diphosphate and 1 μM adrenalin.

The test system of experiment [2] is platelet aggregation produced by 5-hydroxytryptamine in human platelet-rich plasma (PRP). Put plainly: Platelet aggregation in man induced by 5-hydroxytryptamine. The format is cell-based. To be noted: 5-hydroxytryptamine 10 μM in the presence of 0.3 μM adenosine diphosphate and 1 μM adrenalin, read-out: IC50, inhibition of platelet aggregation produced by 5-hydroxytryptamine. The method, then: as §1

For `CN(C)CCCOc1ccccc1CCc1cc(CCNS(=O)(=O)c2ccc(Cl)cc2)cc(CCC(=O)O)c1` [Example 2, 3-[3-(2-{[(4-Chlorophenyl)sulphonyl]amino}ethyl)-5-(2-{2-[3-(dimethylamino)propoxy]phenyl}ethyl)phenyl]propanoic acid], the negative-log IC50 (pIC50) in experiment [1] was 5.48; in experiment [2], 6.02.
